Data from US10975043B2, “Heterocyclic compound” (TAKEDA PHARMACEUTICAL COMPANY LIMITED, priority 2014, dated 2021).

What was measured:
[1] = target: T1, RBP4 (Mus musculus, UniProt Q00724); experiment: Blood RBP4-lowering action in C57BL/6J mouse, plasma RBP4 by ELISA; type: in vivo; details: mean±SD, n=4 or 5
T1 construct: from tissue; host or cells: plasma of male C57BL/6J mice (Japan Charles River)
Description: The blood RBP4-lowering action of the compound of the present invention was evaluated using C57BL/6J mouse.
Male 7- to 10-week-old C57BL/6J mice (Japan Charles River) were acclimation reared under free food ingestion conditions on CE-2 solid feed (CLEA Japan, Inc.) for 4 to 6 days, and randomly grouped (4 or 5 per group). On the day of the test, blood samples were collected from the tail vein, and plasma was separated (0 hr value). Thereafter, a test compound (Example 1, 2, 3, 4, 5, 6, 7 or 8) was orally administered at a dose of 3 mg/kg or 10 mg/kg (solvent: 0.5% methylcellulose solution (10 mL/kg)). At 8 and 24 hr after the compound was administered, blood samples were collected from the tail vein and plasma was separated. A 0.5% methylcellulose solution (10 mL/kg) was orally administered to the control group.
The amount of RBP4 in the collected plasma was measured by the ELISA method. Using rabbit anti-mouse RBP4 polyclonal antibody (Hokudo Co., Ltd.), RBP4 was quantified by the following process. A 96 well ELISA plate was coated with 50 μg/mL antibody (100 μL), and stood at 4° C. overnight or at room temperature for 2 hr. After blocking with BlockAce (Dainippon Pharmaceutical Co., Ltd.), 100 μL of mouse RBP4 or sample was added and the plate was stood at room temperature for 2 hr, washed with PBS-0.5% Tween20, added with HRP-labeled anti-RBP4 antibody (prepared by labeling RBP4 polyclonal antibody (Hokudo Co., Ltd.) with HRP (DOJINDO LABORATORIES)) (100 μL), and stood at room temperature for 1 hr. After washing, TMB (Sigma) was added at room temperature for 20 min to allow for color development. The reaction was quenched with 2N sulfuric acid and the absorbance at A450 nm was measured by a platereader. Variation from the initial value of each individual was taken as the relative value to the control group (initial value/control value, %) at each time point. The results are shown below in mean±standard deviation (n=4 or 5).

[2] = target: T2, RBP4 (Homo sapiens, UniProt P02753); experiment: Binding assay by Retinol-RBP4-TTR ELISA; set-up: the culture supernatant containing secreted hRBP4-His was recovered; made in house; host or cells: FreeStyle 293 expression system (Invitrogen), secreted into the culture supernatant; details: 10 μM compound; retinol 50 nM; His-tagged human RBP4, biotinylated human TTR; read-out: human RBP4 binding inhibitory activity (% at 10 μM)
Description: Using the Retinol-RBP4-TTR ELISA system shown below, the action of the compound of the present invention to inhibit the binding of RBP4 and retinol and TTR was evaluated.
1F: Binding Assay by Retinol-RBP4-TTR ELISA
This ELISA system detects a complex with RBP4 and TTR based on the retinol dependent binding of RBP4 to TTR.
The His-tagged human RBP4 used was prepared in the above-mentioned 1C.
The biotinylated human TTR used was prepared in the above-mentioned 1E.
Streptavidin (20 μl) (10 μg/ml Streptavidin type II (Wako Pure Chemical Industries, Ltd.), 10 mM Tris-HCl (pH 7.5), 10 mM NaCl) was added to a 384 well blackplate (Nunc MaxiSorp, Thermo Fisher Scientific Inc.), and the plate was centrifuged (1000 rpm, 1 min) and coated at 4° C. overnight. The plate was washed twice with PBST (PBS, 0.05% Tween 20, 100 μl/well), and blocked with 25% Block Ace (Snow Brand Milk Products Co., Ltd., PBS, 100 μl/well). The plate was subjected to centrifugation (1000 rpm, 1 min), and incubated at room temperature for 4 hr or 4° C. overnight. The plate was washed twice with PBST (PBS, 0.05% Tween 20, 100 μl/well), and biotinylated human TTR (stock solution concentration 1.0 mg/ml) diluted 750-fold with PBST was added at […]. The plate was subjected to centrifugation (1000 rpm, 1 min), and further stood at room temperature for 1.5 hr or 4° C. overnight. The plate was washed 3 times with PBST (100 μl/well), and His-tagged human RBP4 (stock solution concentration 1.28 mg/ml) diluted 4000-fold with a reaction buffer (50 mM Tris-HCl, 150 mM NaCl, 0.005% Tween 20, 1 mM DTT, 0.1% BSA) was added at 10 μl/well. The dilution of the compound (200-fold concentration) was prepared with DMSO, and 1.6 μl each was added to a reaction buffer (320 μl) containing retinol (50 nM) (Sigma-Aldrich Co.). A reaction buffer (320 μl) containing retinol and added with DMSO was used as a positive control, and a reaction buffer (320 μl) not containing retinol and added with DMSO was used as a negative control. A mixed solution of retinol and the compound was added to the plate at 15 μl/well. The plate was stirred in a plate mixer, centrifuged (1000 rpm, 1 min), and reacted at room temperature for 2 hr. Anti-His HRP-conjugated antibody (QIAGEN) solution diluted with a reaction buffer was added at 10 μl/well, centrifuged (1000 rpm, 1 min), and reacted at room temperature for 30 min. The plate was washed 3 times with PBST (100 μl/well), SuperSignal ELISA Femto Maximum Sensitivity Substrate reagent (PIERCE, Thermo Fisher Scientific Inc.) was added at 30 μl/well, and the luminescence was measured by a plate reader (Envision).
The binding inhibitory activity of the compound was determined by 100×(positive control value−test compound value)/(positive control value−negative control value).

[3] = target: T2, RBP4; details: consequently inhibits formation of a complex with TTR; cited from earlier work
[4] = test system: RBP4; details: administration to an animal; cited from earlier work
[5] = test system: A2E in the eyeball of ABCA4 KO mouse; experiment: Suppression of A2E accumulation in the eyeball of ABCA4 KO mouse, A2E by HPLC; type: in vivo; details: 8 or 12 weeks
Description: The suppressive action for accumulation of retinoid metabolite bis-retinoid N-retinylidene-N-retinylethanolamine (A2E) in the eyeball, of the compound of the present invention, was evaluated using ATP-binding cassette A4 knockout (ABCA4 KO) mouse. A2E is the major constituent component of Lipofuscin in the eyeball, and is involved in the onset and pathology progression in atrophic age-related macular degeneration and Stargardt's disease. ABCA4 KO mouse was confirmed to show remarkable accumulation of A2E, Lipofuscin along with aging, and is known as an animal model of atrophic age-related macular degeneration and Stargardt's disease.
8-Week-old male ABCA4 KO mice were randomly grouped, and 0.5% methylcellulose solution was orally administered to the control group, and 0.5% methylcellulose suspension of a compound at a dose shown in the following Table was orally administered to the test compound group, each once per day at 10 mL/kg. Each group contained 6 or 7 mice. After repetitive administration for 8 or 12 weeks, eyeball was isolated under anesthesia.
In the eyeball, A2E was measured by the HPLC method. A2E reference standard was synthesized from all-trans retinal, ethanolamine in acetic acid-added ethanol. First, 0.3 mL of PBS and zirconia beads were added to the eyeball, and homogenate was prepared using Mixer Mill MM 300 (QIAGEN). A chloroform:methanol (2:1) solution (0.8 mL) was added and the mixture was stirred for […]. The lower layer was separately taken in a different tube, the chloroform:methanol (2:1) solution (0.6 mL) was further added and the mixture was stirred for 5 min. The lower layer was combined with one separated earlier, and dried to solidness by blowing nitrogen gas. 0.05 mL of 85% acetonitrile solution was added and the mixture was stirred to give a measurement sample. For HPLC, Alliance e2695 and Photo diode array 2998 (PDA) (Waters) were used, and Empower 2 was used as an analysis software. The column used was Atlantis dC18 (3 μm, 3.9×150 mm) (Waters), and the column temperature was set to 40° C. […] Quantification was performed at ultraviolet absorbance at 440 nm by PDA.

SMILES	RBP4 (initial value/control value %) 8 hr later ([1]; 10 mg/kg single oral dose) [%]	RBP4 (initial value/control value %) 24 hr later ([1]; 10 mg/kg single oral dose) [%]	inhibition at 10 µM [2] [%]	further results
O=C(O)COc1cnc(-c2cc(C(F)(F)F)cc(C(F)(F)F)c2)nc1 [Example 1, ((2-(3,5-bis(trifluoromethyl)phenyl)pyrimidin-5-yl)oxy)acetic acid]	37.25 ± 11.45	61.81 ± 14.79	98	–
CC1=C(/C=C/C(C)=C/C=C/C(C)=C/C(=O)Nc2ccc(O)cc2)C(C)(C)CCC1 [fenretinide, 4-hydroxy(phenyl)retinamide]	–	–	–	binding of RBP4 and retinol [3]: inhibits binding of RBP4 and retinol; blood RBP4 [4]: induces lowering of blood RBP4
O=C(O)COc1ccn(-c2cc(C(F)(F)F)cc(C(F)(F)F)c2)n1 [Example 5, ((1-(3,5-bis(trifluoromethyl)phenyl)-1H-pyrazol-3-yl)oxy)acetic acid]	–	–	100	RBP4 (initial value/control value %) 8 hr later ([1]; 3 mg/kg single oral dose): 32.14 ± 6.82%; RBP4 (initial value/control value %) 24 hr later ([1]; 3 mg/kg single oral dose): 36.20 ± 1.87%; A2E (% of control value) ([5]; 3 mg/kg oral once per day): 59.10 ± 10.33 % of control value
COC(=O)COc1ccc(-c2cc(C(F)(F)F)cc(C(F)(F)F)c2)nc1 [Example 7, methyl 2-((6-(3,5-bis(trifluoromethyl)phenyl)pyridin-3-yl)oxy)acetate]	43.66 ± 4.92	71.75 ± 8.77	–	–
O=C(O)COc1ccc(-c2cc(C(F)(F)F)cc(C(F)(F)F)c2)nc1 [Example 2, ((6-(3,5-bis(trifluoromethyl)phenyl)pyridin-3-yl)oxy)acetic acid]	23.93 ± 5.84	64.87 ± 16.79	99	A2E (% of control value) ([5]; 10 mg/kg oral once per day): 77.63 ± 9.06 % of control value
O=C(O)COc1nc(-c2cc(C(F)(F)F)cc(C(F)(F)F)c2)co1 [Example 4, ((4-(3,5-bis(trifluoromethyl)phenyl)-1,3-oxazol-2-yl)oxy)acetic acid]	–	–	100	RBP4 (initial value/control value %) 8 hr later ([1]; 3 mg/kg single oral dose): 19.86 ± 11.85%; RBP4 (initial value/control value %) 24 hr later ([1]; 3 mg/kg single oral dose): 54.29 ± 19.15%; A2E (% of control value) ([5]; 1 mg/kg oral once per day): 79.47 ± 14.53 % of control value

Now from value to molecule, other results behind:

RBP4 (initial value/control value %) 8 hr later ([1]; 10 mg/kg single oral dose) [%]	RBP4 (initial value/control value %) 24 hr later ([1]; 10 mg/kg single oral dose) [%]	inhibition at 10 µM [2] [%]	SMILES	further results
58.17 ± 8.61	79.70 ± 5.22	–	CCOC(=O)COc1cnc(-c2cc(C(F)(F)F)cc(C(F)(F)F)c2)nc1 [Example 6, ethyl 2-((2-(3,5-bis(trifluoromethyl)phenyl)pyrimidin-5-yl)oxy)acetate]	–
20.70 ± 1.55	49.64 ± 10.48	100	O=C(O)CCn1ccc(-c2cc(C(F)(F)F)cc(C(F)(F)F)c2)n1 [Example 3, 3-(3-(3,5-bis(trifluoromethyl)phenyl)-1H-pyrazol-1-yl)propanoic acid]	A2E (% of control value) ([5]; 10 mg/kg oral once per day): 73.90 ± 15.58 % of control value
